Laboratory results from US20110236316A1, “PEPTIDE TARGETING IMAGING AGENTS AND METHODS OF USE THEREOF” (University of Utah Research Foundation, priority 2008, published 2011).

Experiments:
[1] = tested on: MDA-MB-231 human breast carcinoma xenografts; test: In vivo MR molecular imaging in MDA-MB-231 xenografts; design: species or system mice
[2] = tested on: HT-29 human colon carcinoma xenografts; test: In vivo MR molecular imaging in HT-29 xenografts; design: species or system mice; conditions: 0.1 mmol/kg iv
Method: In vivo molecular imaging of fibrin-fibronectin complexes in tumor with the targeted contrast agent and MRI was evaluated in female athymic nu/nu mice bearing HT-29 human colon carcinoma xenografts with a T1-weighted 2D spin-echo sequence. A clinical contrast agent, Gd(DTPA-BMA), was used as a control. Competitive targeting of free CLT1 peptide to CLT1-(Gd-DTPA) was also studied with coinjection of CLT1-(Gd-DTPA) and a 3-fold excess of free CLT1 peptide. A group of 3 mice were used for each contrast agent. The mice were anesthetized by intramuscular administration of a mixture of ketamine (45 mg/kg) and xylazine (6 mg/kg) for MRI. The CLT1-(Gd-DTPA) and Gd(DTPA-BMA) was intravenously injected at a dose of 0.1 mmol/kg. Contrast enhanced MR images were acquired before and after injection at 1, 10, 20, 30 and 60 minutes on a Siemens Trio 3T scanner using a human wrist coil. High resolution 3D images were acquired with a 3D FLASH sequence with 25° flip angel, TR/TE=7.8/2.7 ms, slice thickness 0.5 mm, field of view (FOV) 120 mm, voxel size 0.5×0.5×0.5 mm T1-weighted 2D axial tumor images were acquired with a 2D spin echo sequence with TR 400 ms, TE 10 ms, 90° tip angel and FOV 50 mm Mice were sacrificed 24 hours post-injection and tumor tissues were cut and fixed with 3% paraformaldehyde and embedded in paraffin. Tissue sections (4-μm thickness) were incubated in 3% H2O2 for 10 minutes to block endogenous peroxidase activity and boiled in antigen retrieval solution for 15 minutes in microwave. The sections were then incubated with primary antibody overnight and secondary antibody the second day for visualization using the ABC kit (Santa Cruz Biotechnology).
MR signal intensity was also measured and the contrast to noise ratio (CNR) in the tumor tissues was calculated as CNR=(SItissue−SImuscle)/SDnoise.

[3] = up to 60 minutes post-injection

Compound: CNC(=O)CN(CCN(CCN(CC(=O)[O-])CC(=O)NC)CC(=O)[O-])CC(=O)[O-].[Gd+3] [Gd(DTPA-BMA)]
- tumor enhancement (T1-weighted 2D spin-echo MRI) ([1]; after 30 minutes post-injection, 0.1 mmol/kg): decreased significantly
- tumor enhancement (T1-weighted 2D spin-echo MRI) ([1]; first 15 minutes post-injection, CLT1-(Gd-DTPA) 0.05 mmol/kg, Gd(DTPA-BMA) 0.1 mmol/kg): Significant tumor enhancement
- tumor enhancement compared with CLT1-(Gd-DTPA) [2]: didn't show a strong tumor enhancement
- CNR time course, tumor inner area [2, 3]: decreased rapidly
- CNR time course, tumor periphery [2, 3]: decreased rapidly
